The subject of one assay is human corpus cavernosum. The assay is described as follows: Relaxation of noradrenaline-contracted human isolated corpus cavernosum (isometric tension recording). The settings on record: human corpus cavernosum contracted with noradrenaline, 0.0001-1 μM, n=3. The procedure:
(§1) Human corpus cavernosum and urether were obtained from discarded tissues from surgeries, which were placed in ice-cold Krebs solution for rapid transport to the laboratory.
(§2) Cavernosal strips, pulmonary artery, and urether were mounted in 10 ml organ chambers containing Kreb's solution at 37° C., pH 7.4 continuously bubbled with a mixture of 95% O2 and 5% CO2. The tissues were stretched to a resting force of 5 mN and allowed to equilibrate for 60 min. Changes in isometric force were recorded using a PowerLab 4/30 data acquisition system (Chart software, version 7.0; ADInstruments, Colo. Springs, Colo.). Cumulative concentration-response curves to compound 2 (named BL 106 in FIGS. 1, 2 and 3) (0.001-10 μM) were obtained in cavernosal strips, pulmonary artery rings, and urether contracted with noradrenaline (NOR 10 μM) (Sigma, St. Louis, Mo.). Concentration response curves to compound 2 (denoted BL 106 in FIGS. 1, 2 and 3) were constructed for each sample. For pulmonary artery, concentration response curves to compound 2 were also constructed in the presence or absence of the soluble guanylate cyclase inhibitor 1H-[1,2,4]Oxadiazolo[4,3-a]quinoxalin-1-one (ODQ 10 μM) (Sigma, St. Louis, Mo.). Control rings (treated with 40 mM DMSO) were also ran in parallel with experimental strips and rings.
Noradrenaline caused a sustained contraction in the human corpus cavernosum.

A further assay relates to rabbit corpus cavernosum. Kind of assay: Relaxation of noradrenaline-contracted rabbit isolated corpus cavernosum (isometric tension recording). As to the method:
as §2, with “Male New Zealand White rabbits (2-2.5 kg) were used for penis and pulmonary artery tissues, which were excised and transferred to ice-cold Kreb's solution. Two strips and four rings were obtained from each corpus cavernosum (CC) and pulmonary artery, respectively. Cavernosal” for “Cavernosal”, “rings. Noradrenaline (3 or 10 μM) caused a sustained contraction in rabbit corpus cavernosum (13.8 mN).” for “rings.”

The next assay relates to human urether tissue. Kind of assay: Relaxation of noradrenaline-contracted human isolated urether tissue (isometric tension recording). Conditions: human urether contracted with noradrenaline, 0.0001-1 μM, n=3. As to the method:
as §1, §2
Noradrenaline caused a sustained contraction in the human urether tissue.

The next assay deals with rabbit pulmonary artery. The assay is described as follows: Relaxation of noradrenaline-contracted rabbit isolated pulmonary artery rings (isometric tension recording). The procedure: as §2, with “Male New Zealand White rabbits (2-2.5 kg) were used for penis and pulmonary artery tissues, which were excised and transferred to ice-cold Kreb's solution. Two strips and four rings were obtained from each corpus cavernosum (CC) and pulmonary artery, respectively. Cavernosal” for “Cavernosal”, “rings. Noradrenaline (3 or 10 μM) caused a sustained contraction in the rabbit pulmonary artery (17.4 mN).” for “rings.”

[1] abbreviates: read-out: pEC50 of relaxation (converted).

Like-named read-outs stand apart in the source and are kept apart here.

The values that follow come from patent publication US8338432B2, “Derivatives of 6,7-dihydro-3H-oxazolo[3,4-a]pyrazine-5,9-dione as PDE-5 inhibitors” (Biolab Sanus Farmaceutica Ltda., priority 2010, dated 2012).

A word on the Emax: it is the greatest response seen or fitted, relative to the assay's reference.

With `CN1CC(=O)N2C(=C(c3c[nH]c4ccccc34)OC2c2ccc3c(c2)OCO3)C1=O` (racemic) [Compound 2, (R,S)-3-(1,3-benzodioxol-5-yl)-1-(1H-indol-3-yl)-7-methyl-6,7-dihydro[1,3]oxazolo[3,4-a]pyrazine-5,8-dione], the Emax is 71% in the assay on human corpus cavernosum; 91% in the assay with rabbit corpus cavernosum (Oryctolagus cuniculus, rabbit corpus cavernosum contracted with noradrenaline, n=3); 49% in the assay with human urether tissue; 62% in the assay with rabbit pulmonary artery (Oryctolagus cuniculus, rabbit pulmonary artery rings contracted with noradrenaline, 0.001-10 μM, n=3). The EC50 is 22.4 nM in the assay with human corpus cavernosum (setting [1]); 1200 nM in the assay on rabbit corpus cavernosum (Oryctolagus cuniculus, rabbit corpus cavernosum contracted with noradrenaline, n=3, read-out: EC50 of relaxation (bracketed after pEC50) (converted)); 1200 nM in the assay on rabbit corpus cavernosum (Oryctolagus cuniculus, rabbit corpus cavernosum contracted with noradrenaline, n=3, read-out: pEC50 of relaxation (converted)); 513 nM in the assay on human urether tissue (setting [1]); 589 nM with rabbit pulmonary artery (Oryctolagus cuniculus, rabbit pulmonary artery rings contracted with noradrenaline, 0.001-10 μM, n=3, read-out: pEC50 of relaxation (converted)); 588 nM in the assay on rabbit pulmonary artery (Oryctolagus cuniculus, rabbit pulmonary artery rings contracted with noradrenaline, n=3, read-out: EC50 of relaxation (bracketed after pEC50) (converted)).
For the compound `NC[C@H](O)c1ccc(O)c(O)c1` [Noradrenaline, noradrenaline, reference compound], the sustained contraction is on record as 13.8 mN in the assay with rabbit corpus cavernosum (rabbit corpus cavernosum, noradrenaline 3 or 10 μM) and 17.4 mN in the assay with rabbit pulmonary artery (rabbit pulmonary artery, noradrenaline 3 or 10 μM).
